# The supplement of paper PMC6045584
# ± gives the standard deviation of the averaged measurements.
# Key:
# [1] = compound: CC(=O)NCC(=O)N1[C@@H]2CC[C@H]1c1ccc(Nc3ncc(C(F)(F)F)c(NC4CCC4)n3)cc12; assay: area under dose-response curve of surviving fraction (unscaled, Aref=0) (surviving fraction x log10(nM)); higher = more resistant; details: exposure time: 5 days; dose range 0.5-1000 nM
# How it was run: (§1)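 Tumour cell lines in 384-well plates were exposed to eight inhibitor concentrations, from 0.5 to 1000 nM, for five days, and viability was read by CellTiter-Glo luminescence in three screens per line. Signals were normalised to DMSO-only wells, and 3-parameter logistic regression in the drc R package fitted dose-response survival curves to the surviving fractions. Area under the curve is given as the unscaled activity area. That area is taken over log10 dose with Aref = 0.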
# CAMPTOTHECIN [2] = compound: T1, CC[C@@]1(O)C(=O)OCc2c1cc1n(c2=O)Cc2cc3ccccc3nc2-1 [CAMPTOTHECIN]; assay: as above; details: exposure time: 5 days; dose range 0.5-1000 nM
# How it was run: as §1
# OSI-906 = compound: C[C@]1(O)C[C@@H](c2nc(-c3ccc4ccc(-c5ccccc5)nc4c3)c3c(N)nccn32)C1 [OSI-906]; assay: as above; details: exposure time: 5 days; dose range 0.5-1000 nM
# How it was run: as §1
# GEFITINIB = compound: COc1cc2ncnc(Nc3ccc(F)c(Cl)c3)c2cc1OCCCN1CCOCC1 [GEFITINIB]; assay: as above; details: exposure time: 5 days; dose range 0.5-1000 nM
# How it was run: as §1
# PACLITAXEL = compound: CC(=O)O[C@H]1C(=O)[C@@]2(C)[C@H]([C@H](OC(=O)c3ccccc3)[C@]3(O)C[C@H](OC(=O)[C@H](O)[C@@H](NC(=O)c4ccccc4)c4ccccc4)C(C)=C1C3(C)C)[C@]1(OC(C)=O)CO[C@@H]1C[C@@H]2O [PACLITAXEL]; assay: as above; details: exposure time: 5 days; dose range 0.5-1000 nM
# How it was run: as §1
# CELECOXIB = compound: Cc1ccc(-c2cc(C(F)(F)F)nn2-c2ccc(S(N)(=O)=O)cc2)cc1 [CELECOXIB]; assay: as above; details: exposure time: 5 days; dose range 0.5-1000 nM
# How it was run: as §1
# CARBOPLATIN = compound: O=C(O)C1(C(=O)O)CCC1.[NH2-].[NH2-].[Pt+2] [CARBOPLATIN]; assay: as above; details: exposure time: 5 days; dose range 0.5-1000 nM
# How it was run: as §1
# [3] = compound: CC(=O)c1c(C)c2cnc(Nc3ccc(N4CCNCC4)cn3)nc2n(C2CCCC2)c1=O; assay: as above; details: exposure time: 5 days; dose range 0.5-1000 nM
# How it was run: as §1
# YM155 = compound: COCC[n+]1c2c(n(Cc3cnccn3)c1C)C(=O)c1ccccc1C2=O [YM155]; assay: as above; details: exposure time: 5 days; dose range 0.5-1000 nM
# How it was run: as §1
# CAMPTOTHECIN [4] = compound: T1, CAMPTOTHECIN; assay: surviving fraction relative to DMSO-only wells; higher = less growth inhibition; details: exposure time: 5 days
# How it was run: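 Five days of continuous inhibitor exposure, at 0.5, 1, 5, 10, 50, 100, 500 and 1000 nM, followed a 24-hour period after log-phase tumour cell lines were seeded at 250–500 cells per well in 384-well plates. Surviving fraction was derived from CellTiter-Glo luminescence relative to the median of DMSO-only wells. Plates were read after 10 minutes at room temperature, and lines screened three times were kept only if replicate Pearson r >0.7 and median Z' >0.3.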
Test System,area under dose-response curve [1],area under dose-response curve (CAMPTOTHECIN [2]),area under dose-response curve (OSI-906),area under dose-response curve (GEFITINIB),area under dose-response curve (PACLITAXEL),area under dose-response curve (CELECOXIB),area under dose-response curve (CARBOPLATIN),area under dose-response curve [3],area under dose-response curve (YM155),surviving fraction (CAMPTOTHECIN [4]; 0.5 nM),surviving fraction (CAMPTOTHECIN [4]; 1 nM),surviving fraction (CAMPTOTHECIN [4]; 5 nM),surviving fraction (CAMPTOTHECIN [4]; 10 nM),surviving fraction (CAMPTOTHECIN [4]; 50 nM),surviving fraction (CAMPTOTHECIN [4]; 100 nM),surviving fraction (CAMPTOTHECIN [4]; 500 nM),surviving fraction (CAMPTOTHECIN [4]; 1000 nM)
DU4475 BREAST,1.69,0.671,2.23,3.01,0.884,2.98,3.22,3.51,1.66,0.759 ± 0.11,0.643 ± 0.064,0.28 ± 0.055,0.135 ± 0.018,0.0357 ± 0.0042,0.0227 ± 0.0045,0.0217 ± 0.0015,0.0247 ± 0.0025
G292 BONE,2.24,1.35,2.59,3.36,0.722,3.34,3.42,3.05,1.47,0.901 ± 0.015,0.874 ± 0.047,0.591 ± 0.037,0.383 ± 0.014,0.292 ± 0.0027,0.18 ± 0.012,0.121 ± 0.0073,0.102 ± 0.0078
22RV1 PROSTATE,2.6,1.47,3.1,3.34,0.962,,3.48,3.53,1.58,0.938 ± 0.095,0.957 ± 0.053,0.586 ± 0.044,0.275 ± 0.022,0.162 ± 0.16,0.189 ± 0.22,0.24 ± 0.28,0.24 ± 0.28
NY BONE,2.51,1.16,3.15,3.43,0.337,3.48,3.46,3.46,2.96,0.894 ± 0.052,0.905 ± 0.021,0.648 ± 0.026,0.184 ± 0.012,0.067 ± 0.0061,0.0407 ± 0.0015,0.02 ± 0.0017,0.0217 ± 0.0021
PCI30 HEADNECK,2.81,1.92,3.26,2.84,0.529,3.38,3.57,3.11,1.32,0.908 ± 0.043,0.912 ± 0.056,0.857 ± 0.024,0.497 ± 0.026,0.437 ± 0.034,0.487 ± 0.027,0.356 ± 0.015,0.264 ± 0.015
HCC1806 BREAST,2.62,0.682,2.83,2.94,0.267,3.65,3.64,3.44,1.02,0.717 ± 0.092,0.661 ± 0.046,0.269 ± 0.054,0.128 ± 0.015,0.074 ± 0.0056,0.044 ± 0.0017,0.0193 ± 0.00058,0.0223 ± 0.00058
SKBR3 BREAST,,1.42,2.71,2.78,0.673,3.44,3.44,3.09,1.36,0.83 ± 0.073,0.806 ± 0.029,0.757 ± 0.1,0.529 ± 0.029,0.222 ± 0.01,0.166 ± 0.013,0.0683 ± 0.0042,0.0517 ± 0.0049
HUO3N1 BONE,3.12,1.37,2.99,3.38,0.938,,3.59,3.42,2.22,0.761 ± 0.25,0.955 ± 0.14,0.639 ± 0.046,0.373 ± 0.057,0.228 ± 0.016,0.203 ± 0.025,0.1357 ± 0.0011,0.112 ± 0.0079
